Laboratory results reported in patent US10752588B2 (The Broad Institute, Inc., priority 2014, dated 2020).
In brackets after ≈: the same amount, converted by molar mass. Where two headings read alike, the source gives them in different places.

Columns and labels:
[1] = target: T1, human D2R/β-arrestin (Homo sapiens (Human), UniProt P14416); test: cell-based; conditions: β-arrestin Antagonist, CHO-K1 cell line expressing human D2R/β-arrestin; quinpirole used as agonist
[2] = target: T1, human D2R/β-arrestin; conditions: read-out: cAMP Antagonist
[3] = target: T1, human D2R/β-arrestin; test: Gi/cAMP agonist assay (Lance Ultra cAMP, Forskolin); type: cell-based; conditions: CHO-K1 cell line expressing human D2R/β-arrestin
Outline: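 Read-out was Lance Ultra competitive TR-FRET (Eu-cAMP tracer plus ULight-anti-cAMP) following forskolin-induced cAMP production. Before forskolin stimulation, compounds were pin-transferred onto the seeded cells for 10 min at 37 °C.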

[4] = target: T1, human D2R/β-arrestin; test: β-Arrestin agonist assay (PathHunter); type: cell-based; conditions: CHO-K1 cell line expressing human D2R/β-arrestin
Outline: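 Readout follows addition of Buffer:Emerald II:Galactor-Star reagent (19:5:1) to agonist-treated plates, measured as luminescence or fluorescence.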

[5] = target: D2 (Homo sapiens (Human), UniProt P14416); test: D2 radioligand binding assay
[6] = Microsomal stability, mouse
[7] = Plasma stability, mouse
[8] = target: T1, human D2R/β-arrestin; test: cell-based; conditions: cAMP Antagonist, CHO-K1 cell line expressing human D2R/β-arrestin; quinpirole used as agonist
[9] = Solubility in PBS; type: physicochemical; conditions: aqueous buffer
[10] = target: T1, human D2R/β-arrestin; conditions: read-out: β-arrestin Antagonist
[11] = system: plasma protein; test: Plasma protein binding, mouse; type: in vitro ADME
[12] = Microsomal stability, human; type: in vitro ADME
[13] = Plasma stability, human; type: in vitro ADME
[14] = Plasma stability, rat; type: in vitro ADME
[15] = Microsomal stability, rat; type: in vitro ADME
[16] = CHO-K1 cell line expressing human D2R/β-arrestin, quinpirole used as agonist

T1 sequence (P14416 whole entry): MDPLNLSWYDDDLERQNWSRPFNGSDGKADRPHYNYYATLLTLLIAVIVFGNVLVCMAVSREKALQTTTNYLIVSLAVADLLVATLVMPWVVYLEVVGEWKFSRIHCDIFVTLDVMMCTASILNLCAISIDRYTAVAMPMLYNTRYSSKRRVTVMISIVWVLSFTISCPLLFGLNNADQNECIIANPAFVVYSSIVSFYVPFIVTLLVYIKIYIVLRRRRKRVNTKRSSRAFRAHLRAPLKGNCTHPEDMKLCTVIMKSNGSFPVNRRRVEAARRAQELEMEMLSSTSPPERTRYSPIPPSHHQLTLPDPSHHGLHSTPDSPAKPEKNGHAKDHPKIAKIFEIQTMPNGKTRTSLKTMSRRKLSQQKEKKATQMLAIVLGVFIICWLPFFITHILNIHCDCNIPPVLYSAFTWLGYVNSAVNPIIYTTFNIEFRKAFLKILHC
D2, sequence (P14416 whole entry): as above

## CC1(C(=O)NC(c2ccc(F)cc2)c2ccccn2)CCN(CCOc2ccccc2)CC1 (single isomer, unassigned) [Compound 69b, N-((4-fluorophenyl)(pyridin-2-yl)methyl)-4-methyl-1-(2-phenoxyethyl)piperidine-4-carboxamide]
[1]
  IC50: 0.1 to 1 µM
[2]; [16]
  IC50: > 30 µM
[3]
  EC50: < 0.1 µM
[4]
  EC50: 0.1 to 1 µM
[5]
  Ki: 0.1 to 1 µM

## CN(CC1CCN(CCOc2ccccc2F)CC1)C(c1ccc(Cl)cc1)c1ccccn1 (single isomer, unassigned) [Compound 72a, 1-(4-chlorophenyl)-N-((1-(2-(2-fluorophenoxy)ethyl)piperidin-4-yl)methyl)-N-methyl-1-(pyridin-2-yl)methanamine]
[6]
  Microsomal Stability: % remaining after 60 minutes: m0%
[1]
  IC50: 0.1 to 1 µM
[7]
  Plasma Stability: % remaining after 5 hours: m100%
[8]
  IC50: > 30 µM
[9]
  solubility: 1.4 µM (≈ 0.655 µg/mL)
[3]
  EC50: 0.1 to 1 µM
[4]
  EC50: 1 to 10 µM
[5]
  Ki: 0.1 to 1 µM

## COc1cccc(C(c2ccccn2)N(C)CC2CCN(CCOc3ccccc3F)CC2)c1 (single isomer, unassigned) [Compound 77a, N-((1-(2-(2-fluorophenoxy)ethyl)piperidin-4-yl)methyl)-1-(3-methoxyphenyl)-N-methyl-1-(pyridin-2-yl)methanamine]
[6]
  Microsomal Stability: % remaining after 60 minutes: m1%
[1]
  IC50: 0.1 to 1 µM
[8]
  IC50: 0.1 to 1 µM
[3]
  EC50: 0.1 to 1 µM
[4]
  EC50: > 30 µM
[5]
  Ki: 0.1 to 1 µM

## CN(CC1CCN(CCOc2ccccc2)CC1)C(c1ccc(Cl)cc1)c1ccccn1 (single isomer, unassigned) [Compound 79b, 1-(4-chlorophenyl)-N-methyl-N-((1-(2-phenoxyethyl)piperidin-4-yl)methyl)-1-(pyridin-2-yl)methanamine]
[6]
  Microsomal Stability: % remaining after 60 minutes: m0%
[10]; [16]
  IC50: 1 to 10 µM
[7]
  Plasma Stability: % remaining after 5 hours: m100%
[8]
  IC50: > 30 µM
[9]
  solubility: 8 µM (≈ 3.6 µg/mL)
[3]
  EC50: 0.1 to 1 µM
[4]
  EC50: > 30 µM
[5]
  Ki: 0.1 to 1 µM

## O=C(NC(c1ccc2c(c1)OC(F)(F)O2)c1ccccn1)C1CCN(CCOc2ccccc2F)CC1 (single isomer, unassigned) [Compound 94a, N-((2,2-difluorobenzo[d][1,3]dioxol-5-yl)(pyridin-2-yl)methyl)-1-(2-(2-fluorophenoxy)ethyl)piperidine-4-carboxamide]
[6]
  Microsomal Stability: % remaining after 60 minutes: m2%
[1]
  IC50: 0.1 to 1 µM
[8]
  IC50: < 0.1 µM
[3]
  EC50: > 30 µM
[4]
  EC50: > 30 µM
[5]
  Ki: 0.1 to 1 µM

## O=C(NC(c1ccc2c(c1)OC(F)(F)O2)c1ccccn1)C1CCN(CCOc2ccccc2F)CC1 (single isomer, unassigned) [Compound 94b, N-((2,2-difluorobenzo[d][1,3]dioxol-5-yl)(pyridin-2-yl)methyl)-1-(2-(2-fluorophenoxy)ethyl)piperidine-4-carboxamide]
[6]
  Microsomal Stability: % remaining after 60 minutes: m26%
[1]
  IC50: > 30 µM
[8]
  IC50: > 30 µM
[3]
  EC50: < 0.1 µM
[4]
  EC50: 0.1 to 1 µM
[5]
  Ki: 0.1 to 1 µM

## Clc1ccc(C(NCC2CCN(CCOc3ccccc3)CC2)c2ccccn2)cc1 (single isomer, unassigned) [Compound 114a, 1-(4-chlorophenyl)-N-((1-(2-phenoxyethyl)piperidin-4-yl)methyl)-1-(pyridin-2-yl)methanamine]
[1]
  IC50: < 0.1 µM
[8]
  IC50: < 0.1 µM
[3]
  EC50: 0.1 to 1 µM
[4]
  EC50: > 30 µM
[5]
  Ki: 0.1 to 1 µM

## O=C(NC(c1ccc2c(c1)OC(F)(F)O2)c1ccccn1)C1CCN(CCOc2ccccc2)CC1 (single isomer, unassigned) [Compound 119b]
[6]
  Microsomal Stability: % remaining after 60 minutes: m51%
[10]
  IC50: 1 to 10 µM
[7]
  Plasma Stability: % remaining after 5 hours: m100%
[2]
  IC50: > 30 µM
[11]
  Plasma Protein Binding % bound: m97.4%
[3]
  EC50: < 0.1 µM
[4]
  EC50: 0.1 to 1 µM

## CC1(C(=O)NC(c2ccc(Cl)cc2)c2ccccn2)CCN(CCOc2ccccc2)CC1 (single isomer, unassigned) [Compound 144a, N-((4-chlorophenyl)(pyridin-2-yl)methyl)-4-methyl-1-(2-phenoxyethyl)piperidine-4-carboxamide]
[6]
  Microsomal Stability: % remaining after 60 minutes: m1%
[1]
  IC50: < 0.1 µM
[8]
  IC50: > 30 µM
[3]
  EC50: < 0.1 µM
[4]
  EC50: < 0.1 µM
[5]
  Ki: < 0.1 µM

## O=C(NC(c1ccc(Cl)cc1)c1ccccn1)C1CCN(CCOc2ccc(C(F)(F)F)cc2)CC1 (stereo not shown) [Compound 8, N-((4-chlorophenyl)(pyridin-2-yl)methyl)-1-(2-(4-(trifluoromethyl)phenoxy)ethyl) piperidine-4-carboxamide]
[6]
  Microsomal Stability: % remaining after 60 minutes: 53%
[1]
  IC50: 10 to 30 µM
[7]
  Plasma Stability: % remaining after 5 hours: 100%
[8]
  IC50: > 30 µM
[9]
  solubility: 1.1 µM (≈ 0.57 µg/mL)
[12]
  Microsomal Stability: % remaining after 60 minutes: 82%
[13]
  Plasma Stability: % remaining after 5 hours: 100%
[14]
  Plasma Stability: % remaining after 5 hours: 98.1%
[15]
  Microsomal Stability: % remaining after 60 minutes: 100%
[3]
  EC50: 10 to 30 µM
[4]
  EC50: > 30 µM

## CN(CC1CCN(CCOc2ccccc2F)CC1)C(c1ccc(Cl)cc1)c1ccccn1 (stereo not shown) [Compound 72, 1-(4-chlorophenyl)-N-((1-(2-(2-fluorophenoxy)ethyl)piperidin-4-yl)methyl)-N-methyl-1-(pyridin-2-yl)methanamine]
[1]
  IC50: < 0.1 µM
[8]
  IC50: 1 to 10 µM
[3]
  EC50: < 0.1 µM
[4]
  EC50: > 30 µM
[5]
  Ki: < 0.1 µM

## O=C(NC(c1ccc(Cl)cc1)c1ccc(F)cn1)C1CCN(CCOc2ccccc2F)CC1 (stereo not shown) [Compound 92, N-((4-chlorophenyl)(5-fluoropyridin-2-yl)methyl)-1-(2-(2-fluorophenoxy)ethyl)piperidine-4-carboxamide]
[6]
  Microsomal Stability: % remaining after 60 minutes: m22%
[1]
  IC50: 0.1 to 1 µM
[8]
  IC50: 0.1 to 1 µM
[3]
  EC50: 0.1 to 1 µM
[4]
  EC50: > 30 µM
[5]
  Ki: 0.1 to 1 µM

## O=C(NC(c1ccc2c(c1)OCO2)c1ccccn1)C1CCN(CCOc2ccccc2F)CC1 (stereo not shown) [Compound 95, N-(benzo[d][1,3]dioxol-5-yl(pyridin-2-yl)methyl)-1-(2-(2-fluorophenoxy)ethyl) piperidine-4-carboxamide]
[6]
  Microsomal Stability: % remaining after 60 minutes: m33%
[1]
  IC50: 0.1 to 1 µM
[8]
  IC50: 0.1 to 1 µM
[3]
  EC50: 0.1 to 1 µM
[4]
  EC50: > 30 µM
[5]
  Ki: 0.1 to 1 µM

## Clc1ccc(C(c2ccccn2)N2CCC3(CCN(CCOc4ccccc4)CC3)C2)cc1 (stereo not shown) [Compound 105, 2-((4-chlorophenyl)(pyridin-2-yl)methyl)-8-(2-phenoxyethyl)-2,8-diazaspiro[4.5]decane]
[6]
  Microsomal Stability: % remaining after 60 minutes: m18%
[1]
  IC50: 0.1 to 1 µM
[8]
  IC50: > 30 µM
[3]
  EC50: 0.1 to 1 µM
[4]
  EC50: 1 to 10 µM
[5]
  Ki: < 0.1 µM

## FC(F)(F)CN(CC1CCN(CCOc2ccccc2)CC1)C(c1ccc(Cl)cc1)c1ccccn1 (stereo not shown) [Compound 125, N-((4-chlorophenyl)(pyridin-2-yl)methyl)-2,2,2-trifluoro-N-((1-(2-phenoxyethyl)piperidin-4-yl)methyl)ethanamine]
[6]
  Microsomal Stability: % remaining after 60 minutes: m12%
[1]
  IC50: 0.1 to 1 µM
[8]
  IC50: 0.1 to 1 µM
[3]
  EC50: 0.1 to 1 µM
[4]
  EC50: > 30 µM
[5]
  Ki: 0.1 to 1 µM
